Reference: ChEMBL document CHEMBL1201862, “PubChem BioAssay data set” (2004)
Active and inactive are the calls of the source.

Key:
[1] = MITF Orthogonal Assay: MALME3 CTG Assay Measured in Cell-Based System Using Plate Reader - 2084-04_Inhibitor_Dose_DryPowder_Activity_Set6.; assay type: functional; conditions: MALME-3
[2] = growth inhibition of MALME3 cells – cell-based, CellTiter-Glo luminescence, dry powder, set 5, orthogonal assay for MITF inhibitor project, dose response (AID 651584); assay type: functional; conditions: MALME-3
[3] = inhibitors of TRPM1-promoter reporter in SK-MEL-5 – cell-based, luciferase, dry powder, set 8, MITF inhibitor project, dose response (AID 624430); assay type: functional
[4] = MITF: Counter assay: A375 proliferation Measured in Cell-Based System Using Plate Reader - 2084-03_Inhibitor_Dose_DryPowder_Activity_Set8.; assay type: functional; conditions: A-375
[5] = MITF Orthogonal Assay: SK-MEL-5 CTG Assay Measured in Cell-Based System Using Plate Reader - 2084-02_Inhibitor_Dose_DryPowder_Activity_Set7.; assay type: functional
[6] = growth inhibition of SK-MEL-5 melanoma cells – cell-based, CellTiter-Glo luminescence, dry powder, set 8, orthogonal assay for MITF inhibitor project, dose response (AID 651586); assay type: functional
[7] = inhibitors of TRPM1-promoter reporter in SK-MEL-5 – cell-based, luciferase, dry powder, set 9, MITF inhibitor project, dose response (AID 651588); assay type: functional
[8] = viability reduction in hepatoma cells – cell-based, ATP luminescence, dry powder, Set4, cytotoxicity control, dose response (AID 743143); assay type: functional; conditions: HepG2
[9] = SNU-C1 cell viability reduction, dose response, CellTiter-Glo luminescence (AID 1117323); assay type: functional, cell-based
[10] = Reduced DLD-1 viability, concentration-response, CellTiter-Glo luminescence (AID 1117352); assay type: functional
[11] = cytotoxicity toward HT-29 cells – cell-based, CellTiter-Glo luminescence, IC50, dose response (AID 1117330); assay type: functional
[12] = rise of 4N DNA cells, HeLa – IC50, dose response (AID 1117351); assay type: functional, cell-based
[13] = HCT116 cell viability decrease, GSK3B pretreatment – CellTiter-Glo, IC50, dose response (AID 1117339); assay type: functional; conditions: HCT-116
[14] = CellTiter-Glo luminescence survival assay, SW480 colon tumor line, concentration-response curve, half-maximal inhibitory concentration (AID 1117338); assay type: functional
[15] = rise of 2N DNA cells, HeLa – IC50, dose response (AID 1117349); assay type: functional, cell-based
[16] = RKO cell viability reduction, dose response, CellTiter-Glo luminescence (AID 1117322); assay type: functional
[17] = cytotoxicity toward Colo320 cells – cell-based, CellTiter-Glo luminescence, IC50, dose response (AID 1117334); assay type: functional; conditions: COLO 320
[18] = cytotoxicity toward HCT116 cells – cell-based, CellTiter-Glo luminescence, IC50, dose response (AID 1117332); assay type: functional; conditions: HCT-116
[19] = Late stage results for the probe development effort to identify inhibitors of Plasmodium falciparum gametocytes: Luminescence-based cell-based high throughput dose response assay to identify inhibitors of viability of late stage Plasmodium falciparum gametocytes.; assay type: functional
[20] = toxicity to human HepG2 hepatoma cells – cell-based, plate reader, dry powder samples, cytotoxicity control, dose response (AID 1159569); assay type: functional;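 note: inhibitor potency with signal falling toward the positive control level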
[21] = Dd2 malaria parasite growth inhibition potency – SYBR Green, dry powder samples, dose response (AID 1159566); assay type: functional, cell-based;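 note: potency for growth inhibition with lower SYBR green DNA signal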
[22] = growth inhibition of yeast DHODH-expressing 3D7 parasites – SYBR Green, dry powder samples, dose response (AID 1159570); assay type: functional, cell-based;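 note: parasite growth measured after 72 hours of compound exposure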
[23] = P. falciparum Dd2 growth inhibitors, dose response, SYBR Green, cherry-picked samples (AID 1159567); assay type: functional, cell-based
[24] = growth inhibition of PfATP4-mutant resistant parasites – NITD609-resistant line, SYBR Green, dry powder, dose response (AID 1159571); assay type: functional, cell-based;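 note: parasites synchronized at ring stage by sorbitol before testing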
[25] = target: T1, Low molecular weight phosphotyrosine protein phosphatase (Homo sapiens, UniProt P24666); test: inhibition of human LMPTP enzyme activity – biochemical, absorbance, pNPP substrate, LMPTP-A isoform, set 2, orthogonal assay, dose response (AID 743308); assay type: functional
T1 sequence (P24666 whole entry): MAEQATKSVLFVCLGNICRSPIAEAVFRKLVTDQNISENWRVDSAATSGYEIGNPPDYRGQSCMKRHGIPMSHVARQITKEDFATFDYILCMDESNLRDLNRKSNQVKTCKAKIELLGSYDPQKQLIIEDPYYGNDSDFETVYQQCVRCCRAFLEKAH

[26] = target: T1, Low molecular weight phosphotyrosine protein phosphatase; test: inhibition of LMPTP-A enzymatic activity – biochemical, OMFP substrate, fluorescence intensity, set 2, dose response (AID 743307); assay type: functional

CC(C)N1CCN(C2=C(Nc3ccc(F)cc3F)C(=O)c3ccccc3C2=O)CC1
AC50 [1]: 25.4 µM (active)
AC50 [2]: 25.4 µM (active)
AC50 [3]: 2.16 µM (active)
AC50 [4]: > 70 µM (inactive)
AC50 [5]: 8.73 µM (active)
AC50 [6]: 59.1 µM (active)
AC50 [7]: 9.91 µM (active)

O=C(CCn1cnc2ccccc2c1=O)NC1CCCc2ccccc21 (stereo unspecified)
AC50 [8]: > 52 µM (inactive)

Cc1cc(N)c2ccccc2[n+]1CCCCCCCCCC[n+]1c(C)cc(N)c2ccccc21
IC50 [9]: 1.29 µM (active)
IC50 [10]: 5.72 µM (inactive)
IC50 [11]: > 20 µM (inactive)
IC50 [12]: > 10 µM (inactive)
IC50 [13]: > 20 µM (inactive)
IC50 [14]: 3.83 µM (active)
IC50 [15]: > 10 µM (inactive)
IC50 [16]: 2.45 µM (active)
IC50 [17]: 15.9 µM (inactive)
IC50 [18]: > 20 µM (inactive)

Cc1cccc(-c2nn(-c3ccccc3)cc2C(=O)Nc2nccs2)c1
IC50 [19]: > 74.4 µM (inactive)

OC[C@@H]1[C@@H](c2ccccc2)C2(CN(CCC(F)(F)F)C2)N1Cc1ccccc1
AC50 [20]: 69.1 µM (active)
AC50 [21]: 2.48 µM (active)
AC50 [22]: 2.89 µM (active)
AC50 [23]: 2.27 µM (active)
AC50 [24]: 2.36 µM (active)

FC(F)(F)c1cccc(-c2cc(NCCCN3CCCCC3)c3ccccc3n2)c1
IC50 [25]: 6.94 µM (active)
IC50 [26]: 2.66 µM (active)
